These results are taken from patent publication US6346531B1, “G-CSF mimetics” (SmithKline Beecham Corporation, priority 1998, dated 2002).

The subject of one experiment is mouse CFU-g. The experiment in a line: CFU-g assay (colony assay), mouse. The conditions noted are these: potency as G-CSF mimetic. The class given is cell-based. The protocol: (§1) In determining potency as G-CSF mimetics, the following assay is employed: CFU-g Assay
(§2) The compounds of present invention are tested for potency as G-CSF mimetics in a CFU-g assay, an example of which is described in King AG, Talmadge J., Badger AM, Pelus LM. Regulation of colony stimulating activity production from bone marrow stromal cells by the hematoregulatory peptide, HP-5. Exp. Hematol. 20:223-228, 1992.

In another experiment the test system is human CFU-g. Briefly: CFU-g assay (colony assay), human. The conditions noted are these: potency as G-CSF mimetic. The class given is cell-based. The protocol: as §1, §2

Molecules are shown by their SMILES.

`O=c1n2c(nc3n1[C@]1(c4ccccn4)n4c(nc5nc6ccccc6n5c4=O)N[C@]1(c1ccccn1)N3)nc1ccccc12` [Compound A, 7a, 17a-bis(2-pyridyl)-16,19-dioxo-5,7a, 10,16,17a, 19-hexahydro-benzimidazo[2′,1′:4,5][1,3,5]triazino[1,2-a]benzimidazo[2″,1″:4′,5′][1,3,5]triazino[1′,2′:1,2]imidazo[4,5-d]imidazole]: the “mouse CFU-g, colony assay/% Gmax @ 3 uM” value in the experiment with mouse CFU-g worked out at 43 % Gmax. For the same compound, the “human CFU-g, colony assay/% Gmax @ 3 uM” value in the experiment on human CFU-g is given as 41 % Gmax.
